Experimental data from patent publication US9879036B2, “Mitochondrial aldehyde dehydrogenase-2 binding compounds and methods of use thereof” (Aviv Therapeutics, Inc., priority 2014, dated 2018).

Target: T1, ALDH2*1/*1 (Homo sapiens, UniProt P05091)
T1 construct: His-tag (N); made in house; host or cells: E. coli BL21 (pTrcHis vector)
T1 sequence (P05091 18-517): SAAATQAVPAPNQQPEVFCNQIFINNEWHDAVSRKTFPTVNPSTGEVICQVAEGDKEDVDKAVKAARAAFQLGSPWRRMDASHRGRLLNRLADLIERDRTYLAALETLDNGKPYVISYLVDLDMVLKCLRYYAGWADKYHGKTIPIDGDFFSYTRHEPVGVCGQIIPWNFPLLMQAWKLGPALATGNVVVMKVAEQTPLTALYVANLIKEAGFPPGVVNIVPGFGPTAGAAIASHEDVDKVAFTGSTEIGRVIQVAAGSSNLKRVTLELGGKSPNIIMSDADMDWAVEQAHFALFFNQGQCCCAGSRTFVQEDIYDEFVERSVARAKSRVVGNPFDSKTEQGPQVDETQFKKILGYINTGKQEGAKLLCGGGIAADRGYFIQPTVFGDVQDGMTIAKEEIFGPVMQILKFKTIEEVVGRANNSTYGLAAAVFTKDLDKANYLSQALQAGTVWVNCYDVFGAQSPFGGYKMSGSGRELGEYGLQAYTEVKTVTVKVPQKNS
Assay: ALDH2 enzymatic activity, NADH accumulation at 340 nm, acetaldehyde substrate, wild type
Type: biochemical
Conditions: relative to baseline enzymatic activity (100%)
Experimental: (§1) ALDH2 catalyzes the oxidative reaction of substrate acetaldehyde to acetic acid using NAD^+ as a cofactor. Enzymatic activity, or catalytic rate, of aldehyde dehydrogenase (ALDH2) are measured spectrophotometrically at UV wavelength λ340 nm by the accumulation of reduced product NADH derived from NAD^+. Absorbance at λ340 nm is quantitatively proportional to the amount of NADH being produced over time (6.22 O.D. unit=1 mmol of NADH, measured in a 1-cm width standard cuvette). This method is well-established in the literature [e.g. Rex et al., Alcohol Clin. Exp. Res. 9, 147 (1985)].
as §1, with “can be” for “are”
Cloning, expression and purification of human ALDH2 wild type and ALDH2*2 recombinant mutant enzymes: Full-length wild type human ALDH2 cDNA was purchased from ATCC (No. MGC-1806. GenBank ID: BC002967). The 18-amino acid mitochondria transport signal sequence was removed by PCR and cloned into the NheI/HindIII sites of a His-tag vector, pTrcHis, using standard molecular cloning techniques. The human ALDH2* cDNA construct containing the Asian E487K mutation was obtained by site-directed mutagenesis to create the E487K substitution of the wild type ALDH2. Both human clones were designed to express a recombinant protein with the His-tag at the N-terminus of the protein. For the co-expression experiments of human ALDH2 wild type and ALDH2*2 heterotetramers, a wild type ALDH2 gene and a ALDH2 E487K gene were inserted separately into the two multiple cloning sites of pETDuet-1 vector. (Novagen, CA, USA). All the vectors were transformed into BL21 E. coli host cells and subjected to 0.5 mM IPTG induction for protein expression at 30° C. Purifications of the recombinant proteins by affinity nickel columns (HisTrap, GE Healthy Science, USA) were carried out using standard protocols according to manufacturer's instructions (Novagen, USA).
ALDH2 catalyzes the oxidative reaction of substrate acetaldehyde to acetic acid using NAD^+ as a cofactor. Enzymatic activity, or catalytic rate, of aldehyde dehydrogenase (ALDH2) can be measured spectrophotometrically at UV wavelength λ340 nm by the accumulation of reduced product NADH derived from NAD^+. Because compounds of formula (I) are considered to be agonists or “activators” of ALDH2 the enzymatic activity measured will exceed 100% of the baseline enzymatic activity of the enzyme in its normal activation state. As the concentration of the compounds of formula (I) decreases from 20 micromolar to 0.16 micromolar in the presence of ALDH, a decrease in the activation of enzymatic activity is observed for the wild-type ALDH2*1/*1 and the heterozygous form ALDH2*1/*2.

## COc1ccc(CNC(=O)c2cc(-c3ncccc3CO)ccc2OCC2CC2)cc1F [AC6]
2.5 μM compound
  activity at 2.5 µM: 208%
5 μM compound
  activity at 5 µM: 238%
10 μM compound
  activity at 10 µM: 293%
20 μM compound
  activity at 20 µM: 299%
